Experiments:
Assay type in all cases: cell-based
[1] = test system: MDA-MB-231 cells (human breast carcinoma cells); test: Proliferation assay (alamarBlue) with MDA-MB-231 cells; conditions: Homo sapiens, read-out: Activity Range: weighted arithmetic mean (AVEw) of normalized fluorescence intensity relative to DMSO basis level 1.0
From the text: (§1) The antiproliferative activities of compounds falling under formula (Ia), (Tb) and (Ic), respectively, were investigated on cells or cell lines originating from a disorder of the haematopoietic system, including the myeloid cell compartment and the lymphoid cell compartment (T-cells and B-cells), the neuroendocrine system, the cervix, the breast, the ovaries, the lung, the gastrointestinal tract, and the mucosal epithelium, as well as from the skin epithelium and from the muscle. To this end, HL-60 cells, NB-4 cells, HH cells, RPMI-8402 cells, TANOUE cells, TT cells, HeLa cells, MDA-MB-231 cells, FU-OV-1 cells, LOU-NH91 cells, 23132/87 cells, CAL-27 cells, BHY cells, SCC-25 cells, A-431 cells, human primary epidermal keratinocytes (HPEK), and C2C12 cells were seeded into 96-well plates suitable for fluorescence assays (CORNING #3598) at following initial cell numbers: 1000 cells per well for HL-60; 1000 cells per well for NB-4; 5000 cells per well for HH; 5000 cells per well for RPMI-8402; 1500 cells per well for TANOUE; 9000 cells per well for TT; 2000 cells per well for HeLa; 3000 cells per well for MDA-MB-231; 3000 cells per well for FU-OV-1; 4000 cells per well for LOU-NH91; 2000 cells per well for 23132/87; 2000 cells per well for CAL-27; 1500 cells per well for BHY; 1500 cells per well for SCC-25; 700 cells per well for A-431; 1000 cells per well for HPEK; 500 cells per well for C2-C12. The cells were treated with compounds at indicated final concentrations (diluted from the 1000× stock-solutions in DMSO to a final DMSO concentration of 0.1% v/v in H2O (Water For Injection, WFI, Fisherscientific #10378939)) or with the empty carrier DMSO at 0.1% v/v as control for 5 days. At day 5 after starting the treatments the cells were subjected to the alamarBlue® Proliferation Assay (Bio-Rad Serotec GmbH, BUF012B) according to the protocol of the manufacturer. The readout was taken with a multi-well plate-reader in the fluorescence mode with applying a filter for excitation at 560 nm (band width 10 nm) and for emission at 590 nm (band width 10 nm). Control treatments for growth inhibition with commercial compounds such as Methotrexate (MTREX) and Resveratrol (RES) were included on every plate. Some of the test compounds of the present invention were obtained and applied as their salts. According cases are indicated in the column “Specification” in Table 30 to Table 62 and by their sum formula in Table 63.
(§2) The assays were performed in duplicate or more replicates of independent single experiments each containing a six-fold replicate for every condition. For every individual plate, the measured fluorescence intensity values of the conditions with compound treatment were normalized against the corresponding equally weighted arithmetic mean of the fluorescence intensity values of the six DMSO treated control wells in order to obtain the relative values to a baseline level of 1.0.
(§3) Two independent outlier analyses were performed according to the methods by Peirce and Chauvenet (Ross, Journal of Engineering Technology 2003, 1-12). Outliers confirmed by at least one of the methods were excluded from the calculations but not more than one value out of six per compound within a single experiment. The weighted arithmetic mean (here abbreviated as AVEw) for each compound was calculated from the normalized values over all independent replicates of the single experiments comprising the six replicates each. The corresponding standard deviation for the weighted arithmetic mean was calculated according to the method described by Bronstein et al. (Bronstein, Semendjajew, Musiol, Muhlig, Taschenbuch der Mathematik, 5th edition 2001 (German), publisher: Verlag Harri Deutsch, Frankfurt am Main and Thun) and was combined with the Gauβ′ error propagation associated with the performed calculation for the normalization. The resulting standard deviation is herein referred to as “combined standard deviation”. […]

[2] = test system: NB-4 cells (human acute promyelocytic leukemia cells); test: Proliferation assay (alamarBlue) with NB-4 cells; conditions: Homo sapiens, Table 32, compound at 20 μM, read-out: Activity Range (AVEw, weighted arithmetic mean of normalized fluorescence intensity, DMSO = 1.0)
From the text: as §1, §2, §3

[3] = test system: 23132/87 cells (human gastric adenocarcinoma cells); test: Proliferation assay (alamarBlue) with 23132/87 cells; conditions: read-out: Activity Range: weighted arithmetic mean (AVEw) of normalized fluorescence intensity relative to DMSO basis level 1.0
From the text: as §1, §2, §3

[4] = test system: RPMI-8402 cells (human T cell acute lymphoblastic leukemia cells); test: Proliferation assay (alamarBlue) with RPMI-8402 cells; conditions: Homo sapiens, read-out: Activity Range: weighted arithmetic mean (AVEw) of normalized fluorescence intensity relative to DMSO basis level 1.0
From the text: as §1, §2, §3

[5] = test system: CAL-27 cells (human tongue squamous cell carcinoma cells); test: Proliferation assay (alamarBlue) with CAL-27 cells; conditions: read-out: Activity Range: weighted arithmetic mean (AVEw) of normalized fluorescence intensity relative to DMSO basis level 1.0
From the text: as §1, §2, §3

[6] = test system: A-431 cells (human epidermoid squamous cell carcinoma cells); test: Proliferation assay (alamarBlue) with A-431 cells; conditions: Homo sapiens, 20 μM, read-out: Activity Range: weighted arithmetic mean (AVEw) of normalized fluorescence intensity relative to DMSO basis level 1.0
From the text: as §1, §2, §3

[7] = test system: SCC-25 cells (human tongue squamous cell carcinoma cells); test: Proliferation assay (alamarBlue) with SCC-25 cells; conditions: Homo sapiens, read-out: Activity Range: weighted arithmetic mean (AVEw) of normalized fluorescence intensity relative to DMSO basis level 1.0
From the text: as §1, §2, §3

[8] = test system: HL-60 cells (human acute myeloid leukemia cells); test: Proliferation assay (alamarBlue) with HL-60 cells; conditions: Homo sapiens, Table 30, compound at 20 μM, read-out: Activity Range (AVEw, weighted arithmetic mean of normalized fluorescence intensity, DMSO = 1.0)
From the text: as §1, §2, §3

[9] = test system: BHY cells (human oral squamous cell carcinoma cells); test: Proliferation assay (alamarBlue) with BHY cells; conditions: read-out: Activity Range: weighted arithmetic mean (AVEw) of normalized fluorescence intensity relative to DMSO basis level 1.0
From the text: as §1, §2, §3

[10] = test system: HPEKp cells (human epidermal keratinocyte progenitors, pooled); test: Proliferation assay (alamarBlue) with HPEKp cells; conditions: compound at 10 μM, read-out: Activity Range: weighted arithmetic mean (AVEw) of normalized fluorescence intensity, relative to DMSO basis level 1.0
From the text: as §1, §2, §3

[11] = test system: HH cells (human cutaneous T-cell lymphoma cells); test: Proliferation assay (alamarBlue) with HH cells; conditions: Table 34, compound at 20 μM, read-out: Activity Range (AVEw, weighted arithmetic mean of normalized fluorescence intensity, DMSO = 1.0)
From the text: as §1, §2, §3

[12] = test system: C2C12 cells (murine myoblast cells); test: Proliferation assay (alamarBlue) with C2C12 cells; conditions: Mus musculus, compound at 20 μM, read-out: Activity Range: weighted arithmetic mean (AVEw) of normalized fluorescence intensity, relative to DMSO basis level 1.0
From the text: as §1, §2, §3

[13] = test system: TANOUE cells (human B cell leukemia cells); test: Proliferation assay (alamarBlue) with TANOUE cells; conditions: Homo sapiens, B-cell, read-out: Activity Range: weighted arithmetic mean (AVEw) of normalized fluorescence intensity relative to DMSO basis level 1.0
From the text: as §1, §2, §3

Row | Compound | activity at 20 µM [1] [%] | activity at 20 µM [2] [%] | activity at 20 µM [3] [%] | activity at 20 µM [4] [%] | activity at 20 µM [5] [%] | activity at 20 µM [6] [%] | activity at 20 µM [7] [%] | activity at 20 µM [8] [%] | activity at 20 µM [9] [%] | activity at 10 µM [10] [%] | activity at 20 µM [11] [%] | activity at 20 µM [12] [%] | activity at 20 µM [13] [%]
1 | CN1CCC(c2ccc(Oc3ccc(C(=O)O)cc3)cc2)CC1 [XPA-0036, 4-(4-(1-methylpiperidin-4-yl)phenoxy)benzoic acid] | 80 to 90 |  |  |  |  |  |  |  |  |  |  |  | 
2 | OC1(c2ccc(Oc3ccc(C45CC6CC(CC(C6)C4)C5)cc3)cc2)COC1 [XPA-0140, 3-(4-(4-((3r,5r,7r)-adamantan-1-yl)phenoxy)phenyl)oxetan-3-ol] | 20 to 40 | 60 to 70 | 70 to 80 | 20 to 40 | 20 to 40 | 40 to 60 | 20 to 40 | 0 to 20 | 70 to 80 | 0 to 20 | 70 to 80 | 70 to 80 | 0 to 20
3 | OCc1ccc(Oc2ccc(C3CCCCC3)cc2)cc1 [XPA-0006, (4-(4-cyclohexylphenoxy)phenyl)methanol] | 60 to 70 |  |  | 60 to 70 |  | 70 to 80 |  | 80 to 90 | 80 to 90 | 40 to 60 |  |  | 
4 | C=Cc1cc(C2CCCCC2)ccc1Oc1ccc(C(=O)OCC)cc1 [XPA-1284, ethyl 4-(4-cyclohexyl-2-vinylphenoxy)benzoate] | 20 to 40 | 20 to 40 | 70 to 80 | 20 to 40 | 60 to 70 | 40 to 60 | 70 to 80 | 0 to 20 |  | 0 to 20 | 60 to 70 | 20 to 40 | 0 to 20
5 | CCOC(=O)c1ncc(Oc2ccc(C34CC5CC(CC(C5)C3)C4)cc2)cn1 [XPA-1303, ethyl 5-(4-((3r,5r,7r)-adamantan-1-yl)phenoxy)pyrimidine-2-carboxylate] |  |  |  | 80 to 90 |  |  |  |  |  |  |  |  | 80 to 90
6 | O=Cc1ccc(Oc2ccc(C34CC5CC(CC(C5)C3)C4)cc2)cc1 [XPA-0028, 4-(4-(adamantan-1-yl)phenoxy)benzaldehyde] | 70 to 80 | 40 to 60 |  | 40 to 60 |  | 80 to 90 | 80 to 90 | 40 to 60 |  | 0 to 20 |  | 60 to 70 | 0 to 20
7 | CCOC(=O)c1ccc(Oc2ccc(C3CCCCC3)cc2C2CC2)cc1 [XPA-1295, ethyl 4-(4-cyclohexyl-2-cyclopropylphenoxy)benzoate] |  |  |  |  |  |  |  |  |  | 70 to 80 |  |  | 
8 | COC1(c2ccc(Oc3ccc(C4CCCCC4)cc3)cc2)COC1 [XPA-0146, 3-(4-(4-cyclohexylphenoxy)phenyl)-3-methoxyoxetane] | 0 to 20 | 80 to 90 | 60 to 70 | 20 to 40 | 20 to 40 | 20 to 40 |  | 20 to 40 | 70 to 80 | 60 to 70 |  |  | 0 to 20
9 | CCOC(=O)c1ccc(Oc2ccc(C3CCOCC3)cc2)cc1 [XPA-0063, ethyl 4-(4-(tetrahydro-2H-pyran-4-yl)phenoxy)benzoate] | 80 to 90 |  |  | 80 to 90 |  |  |  |  |  |  |  |  | 80 to 90
10 | CCOC(=O)c1ccc(Oc2ccc(CCN(C)C)cc2)cc1 [XPA-0060, ethyl 4-(4-(2-(dimethylamino)ethyl)phenoxy)benzoate] | 40 to 60 | 80 to 90 |  | 40 to 60 | 40 to 60 | 80 to 90 | 20 to 40 |  | 70 to 80 | 20 to 40 | 60 to 70 | 40 to 60 | 
11 | CCOC(=O)c1ccc(Oc2ccc(C3CCCCC3)cc2C2CO2)cc1 (stereo not shown) [XPA-1290, ethyl 4-(4-cyclohexyl-2-(oxiran-2-yl)phenoxy)benzoate] | 70 to 80 |  |  |  |  |  |  |  |  | 0 to 20 |  |  | 80 to 90
